Results: ChEMBL document CHEMBL1926662, “Trace amine-associated receptor 1 is a stereoselective binding site for compounds in the amphetamine class” (Bioorg Med Chem, 2011)

Experiments:
[1] = biological target: T1, Trace amine-associated receptor 1 (Homo sapiens, UniProt Q96RJ0); experiment: Activation of human TAAR1 expressed in Syrian hamster AV12-664 cells co-expressing GalphaS protein assessed as accumulation of cAMP after 30 mins using cAMP XS EA/CL as substrate by luminescence method in presence of RX821002 and alprenolol; type: functional, cell-based
T1 sequence (Q96RJ0 whole entry): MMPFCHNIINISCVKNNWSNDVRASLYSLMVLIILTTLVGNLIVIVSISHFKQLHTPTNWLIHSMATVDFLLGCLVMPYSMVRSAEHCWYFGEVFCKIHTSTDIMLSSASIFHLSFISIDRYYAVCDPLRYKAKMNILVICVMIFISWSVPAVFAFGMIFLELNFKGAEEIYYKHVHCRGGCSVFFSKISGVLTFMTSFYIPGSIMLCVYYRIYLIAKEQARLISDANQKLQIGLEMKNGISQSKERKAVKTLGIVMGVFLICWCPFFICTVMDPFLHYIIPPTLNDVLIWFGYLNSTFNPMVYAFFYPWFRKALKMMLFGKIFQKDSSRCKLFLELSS

[2] = biological target: T1, Trace amine-associated receptor 1; experiment: Activation of C-terminal HA epitope tagged human TAAR1 expressed in RD-HGA16 cells co-expressing Gq protein, Galpha16 by cAMP accumulation assay; type: functional, cell-based
[3] = biological target: T2, Trace amine-associated receptor 1 (Macaca mulatta, UniProt Q8HZ64); experiment: Activation of rhesus monkey TAAR1 expressed in RD-HGA16 cells co-expressing Gq protein assessed as cAMP accumulation by fluorescence plate reader; type: functional, cell-based
T2 sequence (Q8HZ64 whole entry): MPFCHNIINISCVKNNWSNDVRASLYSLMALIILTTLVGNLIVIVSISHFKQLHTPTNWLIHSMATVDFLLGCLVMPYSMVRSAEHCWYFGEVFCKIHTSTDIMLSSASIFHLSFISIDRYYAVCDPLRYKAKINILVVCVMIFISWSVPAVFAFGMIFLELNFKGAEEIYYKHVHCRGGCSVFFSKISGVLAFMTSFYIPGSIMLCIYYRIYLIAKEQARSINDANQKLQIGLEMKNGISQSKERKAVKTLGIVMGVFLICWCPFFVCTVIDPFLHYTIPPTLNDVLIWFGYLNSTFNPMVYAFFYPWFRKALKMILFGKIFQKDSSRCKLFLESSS

[4] = biological target: T3, Trace amine-associated receptor 1 (Mus musculus, UniProt Q923Y8); experiment: Activation of mouse TAAR1 expressed in human HEK293 cells assessed as accumulation of [3H]cAMP after 1 hr by liquid scintillation counting; type: functional, cell-based
[5] = biological target: T1, Trace amine-associated receptor 1; experiment: Activation of human TAAR1 expressed in human HEK293T cells assessed as cAMP accumulation after 10 mins by BRET assay; type: functional, cell-based, HEK-293T
[6] = biological target: T4, Trace amine-associated receptor 1 (Rattus norvegicus, UniProt Q923Y9); experiment: Activation of rat TAAR1 expressed in HEK293 cells assessed as accumulation of [3H]cAMP after 1 hr by liquid scintillation counting; type: functional, cell-based
cells = details: HEK293
Description: Activation of chimeric rat-human expressed in human HEK293 cells assessed as accumulation of [3H]cAMP after 1 hr by liquid scintillation counting

[7] = biological target: T3, Trace amine-associated receptor 1; experiment: Activation of mouse TAAR1 expressed in human HEK293 cells assessed as accumulation of cAMP after 15 mins; type: functional, cell-based
[8] = biological target: T4, Trace amine-associated receptor 1; experiment: Activation of rat TAAR1 expressed in HEK293 cells assessed as accumulation of [3H]cAMP after 1 hr by competitive binding assay; type: functional, cell-based

T3 sequence (Q923Y8 whole entry): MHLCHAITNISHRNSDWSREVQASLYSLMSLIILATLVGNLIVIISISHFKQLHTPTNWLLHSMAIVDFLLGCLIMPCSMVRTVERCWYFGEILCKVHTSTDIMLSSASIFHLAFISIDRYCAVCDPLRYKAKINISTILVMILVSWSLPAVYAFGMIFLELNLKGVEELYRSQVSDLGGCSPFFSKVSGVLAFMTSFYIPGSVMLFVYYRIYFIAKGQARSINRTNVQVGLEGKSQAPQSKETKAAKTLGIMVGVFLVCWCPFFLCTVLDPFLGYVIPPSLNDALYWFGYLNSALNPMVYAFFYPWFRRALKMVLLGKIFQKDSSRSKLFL
T4 sequence (Q923Y9 whole entry): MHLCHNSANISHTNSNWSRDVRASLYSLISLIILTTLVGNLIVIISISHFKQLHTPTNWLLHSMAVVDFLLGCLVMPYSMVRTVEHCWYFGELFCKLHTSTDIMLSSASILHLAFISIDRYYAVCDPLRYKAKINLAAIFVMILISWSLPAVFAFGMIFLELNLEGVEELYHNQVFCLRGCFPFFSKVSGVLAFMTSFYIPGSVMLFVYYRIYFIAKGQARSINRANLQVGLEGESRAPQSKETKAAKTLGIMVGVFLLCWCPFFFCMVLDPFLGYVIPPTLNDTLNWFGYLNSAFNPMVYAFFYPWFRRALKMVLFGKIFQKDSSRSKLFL

SMILES: NCCc1ccccc1 [PHENETHYLAMINE]
- EC50 [1]: 106 nM

SMILES: COc1cc(C[C@H](C)N)c(OC)cc1C
- EC50 ([2]; rd-hga16): Not Active
- EC50 ([3]; read-out: EC50): 900 nM

SMILES: C[C@@H](N)Cc1ccc2c(c1)OCO2
- EC50 ([2]; read-out: EC50): 11700 nM
- EC50 ([3]; read-out: EC50): 2480 nM

SMILES: CN[C@@H](C)Cc1ccccc1 [METHAMPHETAMINE]
- EC50 [4]: 920 nM
- EC50 [5]: 1300 nM
- EC50 [6]: 890 nM
- EC50 (cells): 4440 nM
- EC50 ([2]; read-out: EC50): 1500 nM
- EC50 ([3]; read-out: EC50): 5300 nM
- EC50 [7]: 70 nM

SMILES: CNC(C)Cc1ccc2c(c1)OCO2 (racemic) [MIDOMAFETAMINE]
- EC50 [8]: 1700 nM

SMILES: COc1cc(C[C@@H](C)N)c(OC)cc1C
- EC50 ([2]; rd-hga16): Not Active
- EC50 ([3]; rd-hga16): Not Active

SMILES: C[C@@H](N)Cc1cccc(C(F)(F)F)c1
- EC50 ([2]; rd-hga16): Not Active

SMILES: COc1cccc(C[C@@H](C)N)c1
- EC50 ([2]; read-out: EC50): 6500 nM
- EC50 ([3]; rd-hga16): Not Active

SMILES: CCc1cc(OC)c(C[C@H](C)N)cc1OC
- EC50 ([3]; rd-hga16): Not Active

SMILES: COc1cccc(C[C@H](C)N)c1 [(S)-M-METHOXYAMPHETAMINE]
- EC50 ([2]; read-out: EC50): 1900 nM
- EC50 ([3]; read-out: EC50): 3300 nM

SMILES: C[C@H](N)Cc1ccc(O)cc1 [(S)-P-HYDROXYAMPHETAMINE]
- EC50 [4]: 280 nM
- EC50 [6]: 190 nM
- EC50 (cells): > 5420 nM
- EC50 ([2]; read-out: EC50): 2960 nM
- EC50 ([3]; read-out: EC50): 101 nM

SMILES: CN[C@H](C)Cc1ccc2c(c1)OCO2
- EC50 ([2]; rd-hga16): Not Active
- EC50 ([3]; read-out: EC50): 7400 nM

SMILES: CC(N)Cc1ccc(O)cc1 (racemic) [HYDROXYAMPHETAMINE]
- EC50 [8]: 50 nM

SMILES: C[C@@H](N)Cc1ccc(O)cc1
- EC50 [4]: 5650 nM
- EC50 [6]: 60 nM
- EC50 (cells): > 8540 nM
- EC50 ([2]; read-out: EC50): 3160 nM
- EC50 ([3]; read-out: EC50): 424 nM

SMILES: CN[C@H](C)Cc1ccccc1
- EC50 [4]: 2440 nM
- EC50 [6]: 1190 nM
- EC50 (cells): 9830 nM
- EC50 ([2]; read-out: EC50): 3300 nM
- EC50 ([3]; read-out: EC50): 2500 nM

SMILES: CCc1cc(OC)c(C[C@@H](C)N)cc1OC
- EC50 ([2]; rd-hga16): Not Active
- EC50 ([3]; rd-hga16): Not Active

SMILES: CN[C@@H](C)Cc1ccc2c(c1)OCO2
- EC50 ([3]; read-out: EC50): 16100 nM

SMILES: C[C@H](N)Cc1ccc2c(c1)OCO2
- EC50 ([2]; read-out: EC50): 6570 nM
- EC50 ([3]; read-out: EC50): 1350 nM

SMILES: COc1cc(C[C@H](C)N)c(OC)cc1Br
- EC50 ([2]; read-out: EC50): 15300 nM
- EC50 ([3]; read-out: EC50): 2140 nM

SMILES: NCCc1ccc(Oc2ccc(O)cc2)c(I)c1
- EC50 [1]: 1510 nM

SMILES: COc1cc(C[C@@H](C)N)c(OC)cc1Br
- EC50 ([2]; read-out: EC50): 31900 nM
- EC50 ([3]; read-out: EC50): 13900 nM
